Here are results for 23 compounds from US12297190B2, “Modulators of STING (stimulator of interferon genes)” (PFIZER INC., priority 2019, dated 2025).

Assay [1] has as its target T1, STING (Homo sapiens, UniProt Q86WV6, G230A/H232R/R293Q/R71H).
T1 construct: host or cells: THP-1 and THP-1 Lucia ISG cells
Kind of assay: Phosphorylation of IRF3: THP-1 cell ELISA. It is filed as cell-based. The following applies: THP-1 cells, 3 hours incubation, phospho-IRF3 ELISA; read-out: THP-1 CELL P-IRF3 EC50. As to the method:
Phosphorylation of IRF3: THP-1 Cell ELISA
STING activation results in recruitment of TBK1 and phosphorylation of IRF3 transcription factor before induction of type I interferons. THP-1 cells (InvivoGen) were grown in RPMI media plus 2 mM L-glutamine, 10% fetal bovine serum, and 0.5% Pen-Strep. 10^4 cells were seeded in 96-well plates and incubated overnight 37° C., 5% CO2. Compounds serial diluted compounds in media (final 0.5% DMSO) were added to the cells and incubated for an additional 3 hours. After incubation, the plates were centrifuged at 2000 rpm for 5 min. The cells were then lysed in 100 μl RIPA buffer and vortexed for 30 minutes at room temperature. 25 μl of lysate was then transferred to clear polystyrene High Bind plates that had been previously coated with mouse anti-human IRF-3 capture antibody (BD Pharmigen), and allowed to incubate at 4° C. for 16 hours. The plates were then washed and incubated with rabbit anti-phospho-IRF3 detection antibody (Cell Signaling Technologies) for 1.5 hours at room temperature. Finally, an HRP-linked secondary antibody (Cell Signaling Technologies) was added for 30 min before the Glo Substrate Reagent (R&D Systems) was used generate the luminescent signal. The signal was measured using a Perkin-Elmer Envision microplate reader. Data were normalized to “% effect” with a positive control STING agonist that was known to maximize the phosphorylated IRF3 signal and the negative control was DMSO.
(An ELISA detects its analyte on a solid surface through an enzyme-linked reagent.)

Assay [2] has as its target T1, STING. The experiment in a line: Interferon-β induction: THP-1 Lucia ISG reporter cell line. It is filed as cell-based. The following applies: THP-1 Lucia ISG cells, 24 hours incubation, luciferase reporter; read-out: THP-1 Lucia ISG Cells IFN-β EC50. The protocol: Interferon-β Induction: THP-1 ISG Reporter Cell Line
THP-1 Lucia™ ISG cells (InvivoGen) express the secreted luciferase “Lucia” reporter gene under the control of an IRF-inducible composite promotor comprised of five interferon response elements. THP-1 Lucia™ ISG cells were grown in RPMI media plus 2 mM L-glutamine, 10% fetal bovine serum, and 0.5% Pen-Strep. Hygromycin B and Zeocin were present to maintain stable transfection. 10^4 cells were seeded in 96-well plates and incubated overnight 37° C., 5% CO2. 50 μL of serial diluted compounds in media (final 0.5% DMSO) was and incubated for an additional 24 hours. After incubation, the plates were centrifuged at 2000 rpm for 10 min. 50 μl of cell culture supernatant of each well was transferred to a white, opaque 96-well plate. One pouch of QUANTI-Luc™ (InvivoGen) powder was prepared in 25 mL of endotoxin-free water and 100 μL of prepared warm QUANTI-Luc solution were added to each well containing the supernatant. The luminescence signal was measured using a Perkin-Elmer Envision microplate reader. Data were normalized to “% effect” with a positive control STING agonist that was known to maximize the luciferase signal and the negative control DMSO.
(In general: Reporter assays use an easily measured gene product as a stand-in for the process of interest.)

The next assay deals with R232-STING (Homo sapiens, UniProt Q86WV6, H232R). The experiment in a line: biochemical.
R232-STING, sequence (Q86WV6 155-341 H232R): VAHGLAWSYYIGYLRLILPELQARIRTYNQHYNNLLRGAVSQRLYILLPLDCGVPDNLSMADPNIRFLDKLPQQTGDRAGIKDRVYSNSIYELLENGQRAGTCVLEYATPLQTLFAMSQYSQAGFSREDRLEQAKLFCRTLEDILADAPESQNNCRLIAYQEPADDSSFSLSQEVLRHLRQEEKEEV

T1 sequence (Q86WV6 whole entry R71H/G230A/H232R/R293Q): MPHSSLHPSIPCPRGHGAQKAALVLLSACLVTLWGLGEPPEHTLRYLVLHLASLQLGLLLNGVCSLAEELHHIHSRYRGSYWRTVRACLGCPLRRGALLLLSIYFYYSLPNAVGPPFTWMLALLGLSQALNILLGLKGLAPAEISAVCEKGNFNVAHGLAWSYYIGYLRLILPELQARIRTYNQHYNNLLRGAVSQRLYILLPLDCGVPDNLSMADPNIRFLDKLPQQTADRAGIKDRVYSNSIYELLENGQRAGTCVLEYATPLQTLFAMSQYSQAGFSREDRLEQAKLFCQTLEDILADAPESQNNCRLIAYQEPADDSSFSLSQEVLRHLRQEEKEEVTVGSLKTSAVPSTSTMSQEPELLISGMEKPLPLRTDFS

Consider `CCn1nc(C)c(F)c1-c1nc(-c2nc(C(N)=O)cc3c2cnn3CC(CO)CO)n(C)n1` [Example Y01, 4-[3-(1-ethyl-4-fluoro-3-methyl-1H-pyrazol-5-yl)-1-methyl-1H-1,2,4-triazol-5-yl]-1-[3-hydroxy-2-(hydroxymethyl)propyl]-1H-pyrazolo[4,3-c]pyridine-6-carboxamide], for which the EC50 (in general, the concentration needed to bring the measured effect to its halfway point) at STING [1] was determined as 7100 nM; at STING [2], 7340 nM. Besides, the Ki (as a rule, the equilibrium dissociation constant of an inhibitor or competing ligand from its target) at R232-STING came to 27.2 nM. For the compound `CCn1nc(C)cc1-c1nnc(-c2cc(C(N)=O)cc3c2cnn3CCCCC2CCNCC2)[nH]1` [YY15, 4-[5-(1-ethyl-3-methyl-1H-pyrazol-5-yl)-4H-1,2,4-triazol-3-yl]-1-[4-(piperidin-4-yl)butyl]-1H-indazole-6-carboxamide], the EC50 at STING [1] and on STING [2] was > 100000 nM each time. The compound also had a Ki at R232-STING of 329 nM. As for `CCn1nc(C)cc1-c1n[nH]c(-c2cc(C(N)=O)cc3c2cnn3CCN2CC3CCC(C2)O3)n1` [Example M03], the values for the concentration giving a half-maximal response (EC50) on STING [1] and on STING [2] were 32100 nM and 28500 nM, respectively. Further, the affinity at R232-STING corresponds to a Ki of 159 nM. For the compound `CCn1nc(C)cc1-c1nc(-c2cc(C(N)=O)cc3c2cnn3C)nn1COP(=O)(O)O` [Example N01, [3-(6-carbamoyl-1-methyl-1H-indazol-4-yl)-5-(1-ethyl-3-methyl-1H-pyrazol-5-yl)-1H-1,2,4-triazol-1-yl]methyl dihydrogenphosphate], the EC50 on STING [1] is ≥ 100000 nM; on STING [2] it was 76900 nM. As for `CCn1nc(C)cc1-c1nnc(-c2cc(C(N)=O)cc3c2cnn3[C@H](C)C2CCN(C)CC2)[nH]1` (racemic) [ZZZ041, 4-[5-(1-ethyl-3-methyl-1H-pyrazol-5-yl)-4H-1,2,4-triazol-3-yl]-1-[(1R)-1-(1-methylpiperidin-4-yl)ethyl]-1H-indazole-6-carboxamide], at R232-STING, the inhibition constant Ki is > 990 nM. The same measure, in the same setting: the value for `CCn1nc(C(=O)O)cc1-c1cnc(-c2cc(C(N)=O)cc3c2cnn3C)[nH]1` [ZZZ124, 5-[2-(6-carbamoyl-1-methyl-1H-indazol-4-yl)-1H-imidazol-5-yl]-1-ethyl-1H-pyrazole-3-carboxylic acid] was > 90 nM; that for `CCn1nc(C)cc1-c1nnc(-c2cc(C(N)=O)cc3c2cnn3CC2CC3(CNC3)C2)[nH]1` [ZZZ080, 1-[(2-azaspiro[3.3]heptan-6-yl)methyl]-4-[5-(1-ethyl-3-methyl-1H-pyrazol-5-yl)-4H-1,2,4-triazol-3-yl]-1H-indazole-6-carboxamide] was > 990 nM.

Turning to `CCn1nc(C)cc1-c1nnc(-c2cc(C(N)=O)cc3c2cnn3[C@H](C)CCCN(C)C)[nH]1` (racemic) [ZZZ031, 1-[(2R)-5-(dimethylamino)pentan-2-yl]-4-[5-(1-ethyl-3-methyl-1H-pyrazol-5-yl)-4H-1,2,4-triazol-3-yl]-1H-indazole-6-carboxamide], on R232-STING, the Ki is > 990 nM.

As for `CCn1nc(C)cc1-c1nnc(-c2cc(C(N)=O)cc3c2cnn3C2CCNCC2)[nH]1` [ZZZ067, 4-[5-(1-ethyl-3-methyl-1H-pyrazol-5-yl)-4H-1,2,4-triazol-3-yl]-1-(piperidin-4-yl)-1H-indazole-6-carboxamide], the Ki at R232-STING came out at 536 nM. The compound `CCn1nc(C)cc1-c1nc(-c2nc(C(N)=O)cc3c2cnn3C)n(CCN(C)C)n1` [ZZZ125, 4-{1-[2-(dimethylamino)ethyl]-3-(1-ethyl-3-methyl-1H-pyrazol-5-yl)-1H-1,2,4-triazol-5-yl}-1-methyl-1H-pyrazolo[4,3-c]pyridine-6-carboxamide] showed an inhibitory constant (Ki) at R232-STING of 512 nM. With `CCN1CCCC[C@@H]1Cn1ncc2c(-c3nnc(-c4cc(C)nn4CC)[nH]3)cc(C(N)=O)cc21` (racemic) [ZZZ014, 4-[5-(1-ethyl-3-methyl-1H-pyrazol-5-yl)-4H-1,2,4-triazol-3-yl]-1-{[(2R)-1-ethylpiperidin-2-yl]methyl}-1H-indazole-6-carboxamide], at R232-STING, the Ki is > 990 nM. Regarding `CCn1nc(C)cc1-c1n[nH]c(-c2cc(C(N)=O)cc3c2cnn3CCN2C[C@@H]3C[C@H]2CO3)n1` [ZZZ113, 4-[3-(1-ethyl-3-methyl-1H-pyrazol-5-yl)-1H-1,2,4-triazol-5-yl]-1-{2-[(1S,4S)-2-oxa-5-azabicyclo[2.2.1]heptan-5-yl]ethyl}-1H-indazole-6-carboxamide], on R232-STING, the Ki is 731 nM. On the same count and under the same terms, the same measure for `CCn1nc(C)cc1-c1n[nH]c(-c2cc(C(N)=O)cc3c2cnn3CCN2CCC23CC3)n1` [ZZZ093, 1-[2-(4-azaspiro[2.3]hexan-4-yl)ethyl]-4-[3-(1-ethyl-3-methyl-1H-pyrazol-5-yl)-1H-1,2,4-triazol-5-yl]-1H-indazole-6-carboxamide]: > 990 nM; for `CCn1nc(C)cc1-c1n[nH]c(-c2cc(C(N)=O)cc3c2cnn3CCN2CCC3CC3C2)n1` (stereo not drawn) [ZZZ095, 1-[2-(3-azabicyclo[4.1.0]heptan-3-yl)ethyl]-4-[3-(1-ethyl-3-methyl-1H-pyrazol-5-yl)-1H-1,2,4-triazol-5-yl]-1H-indazole-6-carboxamide]: 773 nM. Same read-out and setting: the same measure for `CCn1nc(CN)cc1-c1nc(-c2nc(C(N)=O)cc3c2cnn3C)n(C)n1` [ZZZ121, 4-{3-[3-(aminomethyl)-1-ethyl-1H-pyrazol-5-yl]-1-methyl-1H-1,2,4-triazol-5-yl}-1-methyl-1H-pyrazolo[4,3-c]pyridine-6-carboxamide]: > 990 nM; for `CCn1nc(C)cc1-c1n[nH]c(-c2cc(C(N)=O)cc3c2cnn3CCN2CC[C@@H](OC)C2)n1` [ZZZ111, 4-[3-(1-ethyl-3-methyl-1H-pyrazol-5-yl)-1H-1,2,4-triazol-5-yl]-1-{2-[(3R)-3-methoxypyrrolidin-1-yl]ethyl}-1H-indazole-6-carboxamide]: 842 nM; for `CCn1nc(C)cc1-c1n[nH]c(-c2cc(C(N)=O)cc3c2cnn3CCN(C)CC(N)=O)n1` [ZZZ105, 1-{2-[(2-amino-2-oxoethyl)(methyl)amino]ethyl}-4-[3-(1-ethyl-3-methyl-1H-pyrazol-5-yl)-1H-1,2,4-triazol-5-yl]-1H-indazole-6-carboxamide]: 879 nM.

For `CCn1nc(C)c(F)c1-c1nnc(-c2cc(C(N)=O)cn3c(C(=O)O)ncc23)[nH]1` [ZZZ057, 6-carbamoyl-8-[5-(1-ethyl-4-fluoro-3-methyl-1H-pyrazol-5-yl)-4H-1,2,4-triazol-3-yl]imidazo[1,5-a]pyridine-3-carboxylic acid], the Ki at R232-STING was > 990 nM. `CCn1nc(C)cc1-c1nnc(-c2cc(C(N)=O)cc3c2cnn3CC[C@@H]2COCCN2)[nH]1` [ZZZ059, 4-[5-(1-ethyl-3-methyl-1H-pyrazol-5-yl)-4H-1,2,4-triazol-3-yl]-1-{2-[(3R)-morpholin-3-yl]ethyl}-1H-indazole-6-carboxamide]: the affinity at R232-STING corresponds to a Ki of 948 nM. Same read-out and setting: the same measure for `CCn1nc(C)cc1-c1nnc(-c2cc(C(N)=O)cc3c2cnn3CCCNC2CCCCC2)[nH]1` [ZZZ071, 1-[3-(cyclohexylamino)propyl]-4-[5-(1-ethyl-3-methyl-1H-pyrazol-5-yl)-4H-1,2,4-triazol-3-yl]-1H-indazole-6-carboxamide]: > 990 nM; for `CCn1nc(C)cc1-c1nnc(-c2cc(C(N)=O)cc3c2cnn3C[C@H]2CCCN2C)[nH]1` [ZZZ027, 4-[5-(1-ethyl-3-methyl-1H-pyrazol-5-yl)-4H-1,2,4-triazol-3-yl]-1-{[(2R)-1-methylpyrrolidin-2-yl]methyl}-1H-indazole-6-carboxamide]: > 990 nM. Same read-out and setting: the same measure for `CCn1nc(C)cc1-c1nnc(-c2cc(C(N)=O)cc3c2nnn3C)[nH]1` [ZZZ002, 4-[5-(1-ethyl-3-methyl-1H-pyrazol-5-yl)-4H-1,2,4-triazol-3-yl]-1-methyl-1H-benzotriazole-6-carboxamide]: > 990 nM; for `Cn1ncc2c(-c3nc(-c4cc(C(F)(F)F)nn4CCC(=O)O)n[nH]3)cc(C(N)=O)cc21` [ZZZ085, 3-{5-[5-(6-carbamoyl-1-methyl-1H-indazol-4-yl)-1H-1,2,4-triazol-3-yl]-3-(trifluoromethyl)-1H-pyrazol-1-yl}propanoic acid]: 44.2 nM.
